This test addresses T1, purified ITK (Invitrogen PV3875) (Homo sapiens, UniProt Q08881).
T1 construct: purchased Invitrogen PV3875
T1 sequence (Q08881 1-620): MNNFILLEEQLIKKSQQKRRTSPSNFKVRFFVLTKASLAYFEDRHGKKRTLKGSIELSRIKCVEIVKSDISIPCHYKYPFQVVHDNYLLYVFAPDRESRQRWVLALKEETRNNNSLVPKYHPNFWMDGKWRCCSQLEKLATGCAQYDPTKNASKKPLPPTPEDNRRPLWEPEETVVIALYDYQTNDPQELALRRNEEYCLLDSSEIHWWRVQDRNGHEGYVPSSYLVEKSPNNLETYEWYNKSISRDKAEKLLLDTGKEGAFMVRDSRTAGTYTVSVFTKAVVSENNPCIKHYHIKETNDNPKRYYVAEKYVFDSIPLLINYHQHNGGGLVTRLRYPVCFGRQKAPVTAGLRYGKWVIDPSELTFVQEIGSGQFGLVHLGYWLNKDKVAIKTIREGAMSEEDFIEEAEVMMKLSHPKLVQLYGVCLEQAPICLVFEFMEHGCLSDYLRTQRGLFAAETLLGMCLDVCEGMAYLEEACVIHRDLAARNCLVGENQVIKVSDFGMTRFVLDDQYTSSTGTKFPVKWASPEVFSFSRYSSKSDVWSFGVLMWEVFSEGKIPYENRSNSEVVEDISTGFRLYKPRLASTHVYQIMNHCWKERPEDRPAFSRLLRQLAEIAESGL
The experiment in a line: ITK peptide phosphorylation assay (Caliper LabChip or LCMS). The class given is biochemical. The protocol:
The ability of purified ITK (Invitrogen PV3875) to catalyze peptide phosphorylation is monitored using a Caliper LabChip 3000 microfluidic unit (Caliper assay) or by liquid chromatography-mass spectrometry (LCMS) using a Waters Acquity system (LCMS assay). […] Reactions are quenched by the addition of 2,2′,2″,2′″-(ethane-1,2-diyldinitrilo)tetraacetic acid (50 mM final). Non-phosphorylated substrate and phosphorylated product peptides are separated and quantified using a Caliper LabChip 3000 instrument. […] Reactions are quenched by the addition of trichloroacetic acid (5% v/v final). Non-phosphorylated substrate and phosphorylated product peptides are separated by ultra performance LC and detected by a coupled triple quadrupole MS device applying multiple reaction monitoring (MRM) for quantification. The area of the MRM-extracted mass signal is used to assess the inhibition by test compounds. Equilibrium dissociation constant (Ki) values for ITK inhibitors are calculated from plots of activity vs. inhibitor concentration using Morrison's quadratic equation that accounts for the potential of tight binding, and by also applying the conversion factor that accounts for competitive inhibition and the concentration of ATP used in the assay relative to its apparent Michaelis constant (Km,app).

[1] abbreviates: Table 2, Examples 1-140, class symbols.
Setting [2] is: Table 3, specific values for certain examples.

In the case of `O=C(Nc1cnn(Cc2cccnc2)c1)c1n[nH]c2ccccc12` [Example 54, N-(1-(pyridin-3-ylmethyl)-1H-pyrazol-4-yl)-1H-indazole-3-carboxamide], the inhibitory constant (Ki) is 1 to 100 nM under setting [1] and 53.2 nM under setting [2].

`O=C(Nc1cnn(Cc2cccc(CNC3CCC3)c2)c1)c1n[nH]c2ccccc12` [Example 94, N-(1-(3-((cyclobutylamino)methyl)benzyl)-1H-pyrazol-4-yl)-1H-indazole-3-carboxamide] had a Ki under setting [1] of 1 to 100 nM. The compound `O=C(Nc1cnn(Cc2ccncc2)c1)c1n[nH]c2cc(-c3cn[nH]c3)ccc12` [Example 218, 6-(1H-pyrazol-4-yl)-N-[1-(4-pyridylmethyl)py-razol-4-yl]-1H-indazole-3-carboxamide] gave an inhibition constant (Ki) (Table 1, Examples 141-279) of 3.19 nM. Under setting [1], `COc1cccc(Cn2cc(NC(=O)c3n[nH]c4ccccc34)cn2)c1` [Example 67, N-(1-(3-methoxybenzyl)-1H-pyrazol-4-yl)-1H-indazole-3-carboxamide] returned a Ki of 1 to 100 nM. In the case of `O=C(Nc1cnn(Cc2csc(N3CCC(O)C3)n2)c1)c1n[nH]c2cc(-c3cn[nH]c3)ccc12` (centres unmarked) [Example 158, N-[1-[[2-(3-hydroxypyrrolidin-1-yl)thiazol-4-yl]methyl]pyrazol-4-yl]-6-(1H-pyrazol-4-yl)-1H-indazole-3-carboxamide], the affinity (Table 1, Examples 141-279), expressed as Ki, was 3.93 nM. On the same count and under the same terms, the result for `O=C(Nc1cnn(Cc2cccc(N3CCC(O)C3)c2)c1)c1n[nH]c2cc(-c3cn[nH]c3)ccc12` (centres unmarked) [Example 161, N-[1-[[3-(3-hydroxypyrrolidin-1-yl)phenyl]meth-yl]pyrazol-4-yl]-6-(1H-pyrazol-4-yl)-1H-indazole-3-carboxamide] reads 1.15 nM. `N#Cc1cccc(Cn2cc(NC(=O)c3n[nH]c4ccc(CCO)cc34)cn2)c1` [Example 82]: the Ki under setting [1] lay in the range of 1 to 100 nM.

With `COc1cc(Cn2cc(NC(=O)c3n[nH]c4ccccc34)cn2)cc(OC)c1` [Example 70, N-(1-(3,5-dimethoxybenzyl)-1H-pyrazol-4-yl)-1H-indazole-3-carboxamide], the Ki under setting [1] is 1 to 100 nM.

For `O=C(Nc1cnn(Cc2csc(C3CCNCC3)n2)c1)c1n[nH]c2cc(-c3cn[nH]c3)ccc12` [Example 160, N-[1-[[2-(4-piperidyl)thiazol-4-yl]methyl]pyrazol-4-yl]-6-(1H-pyrazol-4-yl)-1H-indazole-3-carboxamide], the Ki (Table 1, Examples 141-279) was found to be 4.65 nM. In turn, `COc1ccccc1Cn1cc(NC(=O)c2n[nH]c3ccccc23)cn1` [Example 64, N-(1-(2-methoxybenzyl)-1H-pyrazol-4-yl)-1H-indazole-3-carboxamide] came in with a Ki under setting [1] above 100 nM.

`O=C(Nc1cnn(Cc2ccc(C(F)(F)F)cc2)c1)c1n[nH]c2ccccc12` [Example 62, N-(1-(4-(trifluoromethyl)benzyl)-1H-pyrazol-4-yl)-1H-indazole-3-carboxamide] displayed a Ki under setting [1] of 1 to 100 nM.

In the case of `N#Cc1cccc(Cn2cc(NC(=O)c3n[nH]c4cc(F)ccc34)cn2)c1` [Example 3, N-(1-(3-cyanobenzyl)-1H-pyrazol-4-yl)-6-fluoro-1H-indazole-3-carboxamide], the Ki was 1 to 100 nM under setting [1] and 18.5 nM under setting [2]. The matching figures for `O=C(Nc1cnn(Cc2nc3ccccc3s2)c1)c1n[nH]c2cc(-c3cn[nH]c3)ccc12` [Example 17, 6-(1H-Pyrazol-4-yl)-1H-indazole-3-carboxylic acid (1-benzothiazol-2-ylmethyl-1H-pyrazol-4-yl)-amide]: 1 to 100 nM and 1.8 nM. Consider `O=C(Nc1cnn(Cc2cn3ccccc3n2)c1)c1n[nH]c2cc(-c3cn[nH]c3)ccc12` [Example 19, 6-(1H-Pyrazol-4-yl)-1H-indazole-3-carboxylic acid (1-imidazo[1,2-a]pyridin-2-ylmethyl-1H-pyrazol-4-yl)-amide], for which the Ki runs as follows: under setting [1], 1 to 100 nM; under setting [2], 2.3 nM. As to `CN(C)CCC(c1cscn1)n1cc(NC(=O)c2n[nH]c3cc(-c4cn[nH]c4)ccc23)cn1` (centres unmarked) [Example 200, N-[1-[3-(dimethylamino)-1-thiazol-4-yl-propyl]pyrazol-4-yl]-6-(1H-pyrazol-4-yl)-1H-indazole-3-carboxamide], the affinity (Table 1, Examples 141-279), expressed as Ki, was 0.727 nM.

Consider `N#Cc1cccc(Cn2cc(NC(=O)c3n[nH]c4ccc(-c5ccccc5)cc34)cn2)c1` [Example 79, N-(1-(3-Cyanobenzyl)-1H-pyrazol-4-yl)-5-phenyl-1H-indazole-3-carboxamide], for which the Ki under setting [1] is above 100 nM. For `CC(=O)N(C)CCC(c1ccccc1)n1cc(NC(=O)c2n[nH]c3ccccc23)cn1` (centres unmarked) [Example 265, N-[1-[3-[acetyl(meth-yl)amino]-1-phenyl-propyl]pyrazol-4-yl]-1H-indazole-3-carboxamide], affinity (Table 1, Examples 141-279) was put at a Ki of 23.8 nM.

On to `N#Cc1cccc(Cn2cc(NC(=O)c3n[nH]c4ccc(NC5CCCCC5)cc34)cn2)c1` [Example 195, N-[1-[(3-cyanophenyl)meth-yl]pyrazol-4-yl]-5-(cyclohexylamino)-1H-indazole-3-carboxamide], for which the Ki (Table 1, Examples 141-279) came out at 42.4 nM.

For the compound `COc1ccc2c(C(=O)Nc3cnn(Cc4cccc(C#N)c4)c3)n[nH]c2c1` [Example 6, N-(1-(3-cyanobenzyl)-1H-pyrazol-4-yl)-6-methoxy-1H-indazole-3-carboxamide], under setting [1], the Ki was in the range of 1 to 100 nM. Take `COC(=O)C(c1ccccc1)n1cc(NC(=O)c2n[nH]c3ccccc23)cn1` (centres unmarked) [Example 255, methyl 2-[4-(1H-indazole-3-carbonylamino)py-razol-1-yl]-2-phenyl-acetate]: where the note is “Table 1, Examples 141-279”, the Ki is 38.3 nM.

The compound `CC[C@@H](c1ccccc1)n1cc(NC(=O)c2n[nH]c3cc(-c4cccnc4)ccc23)cn1` [Example 139, (S)—N-(1-(1-phenylpropyl)-1H-pyrazol-4-yl)-6-(pyridin-3-yl)-1H-indazole-3-carboxamide] came in with a Ki under setting [1] of 1 to 100 nM. The same measure, in the same setting: the figure for `O=C(Nc1cnn(Cc2cc(CN3CCOCC3)on2)c1)c1n[nH]c2cc(-c3cn[nH]c3)ccc12` [Example 18, 6-(1H-Pyrazol-4-yl)-1H-indazole-3-carboxylic acid [1-(5-morpholin-4-ylmethyl-isoxazol-3-ylmethyl)-1H-pyrazol-4-yl]-amide] is 1 to 100 nM. With `O=C(Nc1cnn(Cc2cccc(CNCCO)c2)c1)c1n[nH]c2ccccc12` [Example 96, N-(1-(3-((2-hydroxyethylamino)methyl)benzyl)-1H-pyrazol-4-yl)-1H-indazole-3-carboxamide], the Ki reads like this: under setting [1], 1 to 100 nM; under setting [2], 38.7 nM. Where the note is “Table 1, Examples 141-279”, `O=C(Nc1cnn(CC2CCC2)c1)c1n[nH]c2cc(-c3cn[nH]c3)ccc12` [Example 236, N-[1-(cyclobutylmeth-yl)pyrazol-4-yl]-6-(1H-pyrazol-4-yl)-1H-indazole-3-carboxamide] displayed a Ki of 6.09 nM. For `NC(=O)c1cccc(Cn2cc(NC(=O)c3n[nH]c4cc(-c5cn[nH]c5)ccc34)cn2)c1` [Example 29, 6-(1H-Pyrazol-4-yl)-1H-indazole-3-carboxylic acid [1-(3-carbamoyl-benzyl)-1H-pyrazol-4-yl]-amide], the Ki under setting [1] is 0.01 to 1 nM. Consider `CN(CCC(c1ccccc1)n1cc(NC(=O)c2n[nH]c3ccccc23)cn1)S(C)(=O)=O` (centres unmarked) [Example 272, N-[1-[3-[methyl(methyl-sulfonyl)amino]-1-phenyl-propyl]pyrazol-4-yl]-1H-indazole-3-carboxamide], for which, under “Table 1, Examples 141-279”, affinity was put at a Ki of 41.6 nM. On the same count and under the same terms, the result for `N#Cc1cccc(Cn2cc(NC(=O)c3n[nH]c4cc(Br)c(F)cc34)cn2)c1` [Example 146, 6-bromo-N-[1-[(3-cyanophenyl)meth-yl]pyrazol-4-yl]-5-fluoro-1H-indazole-3-carboxamide] reads 111 nM.

Turning to `CN(C)CCNCc1ccc(Cn2cc(NC(=O)c3n[nH]c4ccccc34)cn2)cc1` [Example 104, N-(1-(4-((2-(dimethylamino)ethylamino)methyl)benzyl)-1H-pyrazol-4-yl)-1H-indazole-3-carboxamide], the Ki under setting [1] was 1 to 100 nM. For the compound `CN(C)CCC(c1ccccc1)n1cc(NC(=O)c2n[nH]c3cc(-c4cn[nH]c4)cnc23)cn1` (centres unmarked) [Example 279, N-[1-[3-(dimethylamino)-1-phenyl-propyl]pyrazol-4-yl]-6-(1H-pyrazol-4-yl)-1H pyrazolo[4,3-b]pyridine-3-carboxamide], the Ki (Table 1, Examples 141-279) was 36.7 nM. For the setting “Table 1, Examples 141-279”, `N#Cc1cccc(Cn2cc(NC(=O)c3n[nH]c4cc(-c5ccc(N)nc5)c(F)cc34)cn2)c1` [Example 152, 6-(6-amino-3-pyridyl)-N-[1-[(3-cyanophenyl)meth-yl]pyrazol-4-yl]-5-fluoro-1H-indazole-3-carboxamide] displayed an inhibition constant (Ki) of 12.8 nM. Compared with the last compound, the Ki is about 2.9-fold lower.

One may read the Ki as the equilibrium dissociation constant of an inhibitor or competing ligand from its target. Low readings indicate tighter binding, high ones weaker binding.

Source of the values: patent US20140309210A1, “INDAZOLE COMPOUNDS, COMPOSITIONS AND METHODS OF USE THEREOF” (Genentech, Inc., priority 2011, published 2014).
